Measurements from patent US8309577B2, “Quinuclidine compounds as α-7 nicotinic acetylcholine receptor ligands” (Bristol-Myers Squibb Company, priority 2008, dated 2012).

Molecular target: T1, α-7 nicotinic acetylcholine receptor channel expressed in HEK 293 cells (Rattus norvegicus, UniProt Q05941)
T1 construct: expressed in transfected cells
Assay: Ca2+-sensitive fluorescence-based FLIPR assay, α7 nicotinic ACh receptor channel function (agonist)
Type: cell-based
Details: FLIPR α7 activity rating (EC50, nM), Table 1; HEK 293 cells, agonist Ca2+ flux
Summary of the method: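 Potency and efficacy derived from kinetic FLIPR Ca²⁺-flux fluorescence, recorded 3 min after compound addition in Hanks buffer following a 10 s baseline.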

T1 sequence (Q05941 23-502): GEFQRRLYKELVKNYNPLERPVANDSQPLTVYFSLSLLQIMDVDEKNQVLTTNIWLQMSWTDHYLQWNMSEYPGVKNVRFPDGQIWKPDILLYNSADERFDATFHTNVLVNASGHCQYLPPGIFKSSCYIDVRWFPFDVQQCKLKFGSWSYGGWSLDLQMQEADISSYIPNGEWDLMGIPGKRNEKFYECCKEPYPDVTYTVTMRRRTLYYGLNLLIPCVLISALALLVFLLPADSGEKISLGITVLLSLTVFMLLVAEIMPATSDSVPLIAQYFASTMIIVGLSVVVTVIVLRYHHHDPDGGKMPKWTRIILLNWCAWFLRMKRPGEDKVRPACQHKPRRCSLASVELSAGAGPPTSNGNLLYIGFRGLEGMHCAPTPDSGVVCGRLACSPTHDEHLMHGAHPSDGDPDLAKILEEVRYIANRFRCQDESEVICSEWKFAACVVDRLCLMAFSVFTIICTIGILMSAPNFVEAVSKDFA

SMILES | EC50
c1ccc(COc2ccc3nc(NC4=NC[C@@]5(CN6CCC5CC6)O4)sc3n2)cc1 [Example 236, (R)—N-(5-(Benzyloxy)thiazolo[5,4-b]pyridin-2-yl)-4H-1′-azaspiro[oxazole-5,3′-bicyclo[2.2.2]octan]-2-amine] | 1000 to 100000 nM
O=c1ccc2nc(NC3=NC[C@@]4(CN5CCC4CC5)O3)sc2[nH]1 [Example 237, (R)-2-(4H-1′-azaspiro[oxazole-5,3′-bicyclo[2.2.2]octane]-2-ylamino)thiazolo[5,4-b]pyridin-5(4H)-one] | < 100 nM
c1ccc(Oc2cc(NC3=NC[C@@]4(CN5CCC4CC5)O3)ncn2)cc1 [Example 240, (R)—N-(6-Phenoxypyrimidin-4-yl)-4H-1′-azaspiro[oxazole-5,3′-bicyclo[2.2.2]octan]-2-amine] | 100 to 1000 nM
COc1ccc2ncc(NC3=NC[C@@]4(CN5CCC4CC5)O3)nc2c1 [Example 241, (R)—N-(7-methoxyquinoxalin-2-yl)-4H-1′-azaspiro[oxazole-5,3′-bicyclo[2.2.2]octan]-2-amine] | 1000 to 100000 nM
Cc1ccc2nc(NC3=NC[C@@]4(CN5CCC4CC5)O3)cnc2c1 [Example 242, (R)—N-(6-Methylquinoxalin-2-yl)-4H-1′-azaspiro[oxazole-5,3′-bicyclo[2.2.2]octan]-2-amine] | 100 to 1000 nM
Cc1ccc2ncc(NC3=NC[C@@]4(CN5CCC4CC5)O3)nc2c1 [Example 243, (R)—N-(7-Methylquinoxalin-2-yl)-4H-1′-azaspiro[oxazole-5,3′-bicyclo[2.2.2]octan]-2-amine] | 1000 to 100000 nM
c1cncc(-c2cc(NC3=NC[C@@]4(CN5CCC4CC5)O3)ncn2)c1 [Example 244, (R)—N-(6-(Pyridin-3-yl)pyrimidin-4-yl)-4H-1′-azaspiro[oxazole-5,3′-bicyclo[2.2.2]octan]-2-amine] | < 100 nM
COc1ncc(-c2cc(NC3=NC[C@@]4(CN5CCC4CC5)O3)ncn2)cn1 [Example 245, (R)—N-(2′-Methoxy-4,5′-bipyrimidin-6-yl)-4H-1′-azaspiro[oxazole-5,3′-bicyclo[2.2.2]octan]-2-amine] | < 100 nM
c1cc(-c2cc(NC3=NC[C@@]4(CN5CCC4CC5)O3)ncn2)ccn1 [Example 246, (R)—N-(6-(Pyridin-4-yl)pyrimidin-4-yl)-4H-1′-azaspiro[oxazole-5,3′-bicyclo[2.2.2]octan]-2-amine] | < 100 nM
Cc1nc(NC2=NC[C@@]3(CN4CCC3CC4)O2)ccc1C#N [Example 247, (R)-6-(4H-1′-Azaspiro[oxazole-5,3′-bicyclo[2.2.2]octane]-2-ylamino)-2-methylnicotinonitrile] | 100 to 1000 nM
Cc1cc(NC2=NC[C@@]3(CN4CCC3CC4)O2)nc(C)c1C#N [Example 248, (R)-6-(4H-1′-Azaspiro[oxazole-5,3′-bicyclo[2.2.2]octane]-2-ylamino)-2,4-dimethylnicotinonitrile] | 100 to 1000 nM
c1ccc(-c2ccc(NC3=NC[C@@]4(CN5CCC4CC5)O3)nn2)cc1 [Example 249, (R)—N-(6-Phenylpyridazin-3-yl)-4H-1′-azaspiro[oxazole-5,3′-bicyclo[2.2.2]octan]-2-amine] | 1000 to 100000 nM
Clc1ccc(NC2=NC[C@@]3(CN4CCC3CC4)O2)nc1Cl [Example 251, (R)—N-(5,6-Dichloropyridin-2-yl)-4H-1′-azaspiro[oxazole-5,3′-bicyclo[2.2.2]octan]-2-amine] | < 100 nM
Clc1cnc(NC2=NC[C@@]3(CN4CCC3CC4)O2)cc1Cl [Example 252, (R)—N-(4,5-Dichloropyridin-2-yl)-4H-1′-azaspiro[oxazole-5,3′-bicyclo[2.2.2]octan]-2-amine] | < 100 nM
Cc1cc(NC2=NC[C@@]3(CN4CCC3CC4)O2)ncc1Cl [Example 253, (R)—N-(5-Chloro-4-methylpyridin-2-yl)-4H-1′-azaspiro[oxazole-5,3′-bicyclo[2.2.2]octan]-2-amine] | < 100 nM
Clc1ccc(NC2=NC[C@@]3(CN4CCC3CC4)O2)nn1 [Example 254, (R)—N-(6-Chloropyridazin-3-yl)-4H-1′-azaspiro[oxazole-5,3′-bicyclo[2.2.2]octan]-2-amine] | 100 to 1000 nM
Brc1ccc(NC2=NC[C@@]3(CN4CCC3CC4)O2)nn1 [Example 255, (R)—N-(6-Bromopyridazin-3-yl)-4H-1′-azaspiro[oxazole-5,3′-bicyclo[2.2.2]octan]-2-amine] | 100 to 1000 nM
Clc1ccc(-c2cc(NC3=NC[C@@]4(CN5CCC4CC5)O3)ncn2)cc1 [Example 256, (R)—N-(6-(4-Chlorophenyl)pyrimidin-4-yl)-4H-1′-azaspiro[oxazole-5,3′-bicyclo[2.2.2]octan]-2-amine] | < 100 nM
Clc1cccc(-c2cc(NC3=NC[C@@]4(CN5CCC4CC5)O3)ncn2)c1 [Example 257, (R)—N-(6-(3-Chlorophenyl)pyrimidin-4-yl)-4H-1′-azaspiro[oxazole-5,3′-bicyclo[2.2.2]octan]-2-amine] | < 100 nM
Cc1nnc(NC2=NC[C@@]3(CN4CCC3CC4)O2)o1 [Example 258, (R)—N-(5-Methyl-1,3,4-oxadiazol-2-yl)-4H-1′-azaspiro[oxazole-5,3′-bicyclo[2.2.2]octan]-2-amine] | 1000 to 100000 nM

SMILES | EC50
Cc1nsc(NC2=NC[C@@]3(CN4CCC3CC4)O2)n1 [Example 259, (R)—N-(3-Methyl-1,2,4-thiadiazol-5-yl)-4H-1′-azaspiro[oxazole-5,3′-bicyclo[2.2.2]octan]-2-amine] | 1000 to 100000 nM
Cc1noc(NC2=NC[C@@]3(CN4CCC3CC4)O2)n1 [Example 260, (R)—N-(3-Methyl-1,2,4-oxadiazol-5-yl)-4H-1′-azaspiro[oxazole-5,3′-bicyclo[2.2.2]octan]-2-amine] | 100 to 1000 nM
CSc1cc(NC2=NC[C@@]3(CN4CCC3CC4)O2)ncn1 [Example 261, (R)—N-(6-(Methylthio)pyrimidin-4-yl)-4H-1′-azaspiro[oxazole-5,3′-bicyclo[2.2.2]octan]-2-amine] | < 100 nM
c1ccn2c(NC3=NC[C@@]4(CN5CCC4CC5)O3)nnc2c1 [Example 262, (R)—N-([1,2,4]Triazol[4,3-a]pyridine-3-yl)-4H-1′-azaspiro[oxazole-5,3′-bicyclo[2.2.2]octan]-2-amine] | 1000 to 100000 nM
Brc1cnc2nc(NC3=NC[C@@]4(CN5CCC4CC5)O3)sc2n1 [Example 263, (R)—N-(6-bromothiazolo[5,4-b]pyrazin-2-yl)-4H-1′-azaspiro[oxazole-5,3′-bicyclo[2.2.2]octan]-2-amine] | < 100 nM
CSc1cnc2nc(NC3=NC[C@@]4(CN5CCC4CC5)O3)sc2n1 [Example 264, (R)—N-(6-(methylthio)thiazolo[5,4-h]pyrazin-2-yl)-4H-1′-azaspiro[oxazole-5,3′-bicyclo[2.2.2]octan]-2-amine] | 100 to 1000 nM
COc1ncc2nc(NC3=NC[C@@]4(CN5CCC4CC5)O3)sc2n1 [Example 265, (R)—N-(5-Methoxythiazolo[5,4-d]pyrimidin-2-yl)-4H-1′-azaspiro[oxazole-5,3′-bicyclo[2.2.2]octan]-2-amine] | < 100 nM
CCc1nnc(NC2=NC[C@@]3(CN4CCC3CC4)O2)o1 [Example 266, (R)—N-(5-Ethyl-1,3,4-oxadiazol-2-yl)-4H-1′-azaspiro[oxazole-5,3′-bicyclo[2.2.2]octan]-2-amine] | 1000 to 100000 nM
Clc1cnc(NC2=NC[C@@]3(CN4CCC3CC4)O2)c(Cl)c1 [Example 267, (R)—N-(3,5-Dichloropyridin-2-yl)-4H-1′-azaspiro[oxazole-5,3′-bicyclo[2.2.2]octan]-2-amine] | < 100 nM
Clc1ccc2nc(NC3=NC[C@@]4(CN5CCC4CC5)O3)sc2n1 [Example 268, (R)—N-(5-chlorothiazolo[5,4-b]pyridin-2-yl)-4H-1′-azaspiro[oxazole-5,3′bicyclo[2.2.2]octan]-2-amine] | < 100 nM
CN(C)c1ncc2nc(NC3=NC[C@@]4(CN5CCC4CC5)O3)sc2n1 [Example 269, (R)—N^5,N^5-dimethyl-N^2-(4H-1′-azaspiro[oxazole-5,3′-bicyclo[2.2.2]octane]-2-yl)thiazolo[5,4-d]pyrimidine-2,5-diamine] | 1000 to 100000 nM
c1cn2nc(NC3=NC[C@@]4(CN5CCC4CC5)O3)nc2cn1 [Example 270, (R)—N-([1,2,4]Triazol[1,5-a]pyrazin-2-yl)-4H-1′-azaspiro[oxazole-5,3′-bicyclo[2.2.2]octan]-2-amine] | < 100 nM
c1cnc2sc(NC3=NC[C@@]4(CN5CCC4CC5)O3)nc2c1 [Example 271, (R)—N-(Thiazolo[5,4-h]pyridin-2-yl)-4H-1′-azaspiro[oxazole-5,3′-bicyclo[2.2.2]octan]-2-amine] | < 100 nM
c1cnc2sc(NC3=NC[C@@]4(CN5CCC4CC5)O3)nc2n1 [Example 272, (R)—N-(Thiazolo[5,4-b]pyrazin-2-yl)-4H-1′-azaspiro[oxazole-5,3′-bicyclo[2.2.2]octan]-2-amine] | < 100 nM
COc1nc(C)nc2sc(NC3=NC[C@@]4(CN5CCC4CC5)O3)nc12 [Example 273, (R)—N-(7-Methoxy-5-methylthiazolo[5,4-d]pyrimidin-2-yl)-4H-1′-azaspiro[oxazole-5,3′-bicyclo[2.2.2]octan]-2-amine] | 1000 to 100000 nM
COc1ncnc2sc(NC3=NC[C@@]4(CN5CCC4CC5)O3)nc12 [Example 274, (R)—N-(7-Methoxythiazolo[5,4-d]pyrimidin-2-yl)-4H-1′-azaspiro[oxazole-5,3′-bicyclo[2.2.2]octan]-2-amine] | 1000 to 100000 nM
N#Cc1cnc(NC2=NC[C@@]3(CN4CCC3CC4)O2)s1 [Example 275, (R)-2-(4H-1′-Azaspiro[oxazole-5,3′-bicyclo[2.2.2]octan]-2-ylamino)thiazole-5-carbonitrile] | 100 to 1000 nM
c1cc2nc(NC3=NC[C@@]4(CN5CCC4CC5)O3)ccc2cn1 [Example 277, (R)—N-(1,6-Naphthyridin-2-yl)-4H-1′-azaspiro[oxazole-5,3′-bicyclo[2.2.2]octan]-2-amine] | < 100 nM
Clc1cc(Cl)c2cnc(NC3=NC[C@@]4(CN5CCC4CC5)O3)cc2c1 [Example 279, (R)—N-(6,8-Dichloroisoquinolin-3-yl)-4H-1′-azaspiro[oxazole-5,3′-bicyclo[2.2.2]octan]-2-amine] | 100 to 1000 nM
